11 compounds from patent US11986471B2, “Compounds and methods of use” (Tango Therapeutics, Inc., priority 2018, dated 2024) can be followed below.

As usually defined, the IC50 is the concentration needed to halve the response being measured.

Experiment [1] concerns HAP1 MTAP-intact. Put plainly: SDMA in-cell western assay, HAP1 MTAP-intact cell line. The format is cell-based. The settings on record: Homo sapiens. The method, boiled down: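 HAP1 isogenic pair: endogenous MTAP vs MTAP-null. Readout SDMA by in-cell western; IC50 per line. Ratio ≥3 fold = MTAP-selective.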
The test system of experiment [2] is HAP1 MTAP-deleted. Briefly: SDMA in-cell western assay, HAP1 MTAP-deleted cell line. The format is cell-based. To be noted: for IC50: Homo sapiens, HAP1 MTAP-deleted cell line; for MTAP Intact/Deleted Ratio: IC50 ratio HAP1 MTAP-intact / HAP1 MTAP-deleted. An outline of the steps: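 IC50 from SDMA in-cell western; HAP1 line lacking MTAP (null), paired isogenically with MTAP-intact HAP1 expressing endogenous MTAP.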

Experiment [3] addresses T1, PRMT5 (Homo sapiens, UniProt O14744).
T1 construct: purchased Viva (custom protein)
Briefly: PRMT5 IC50 assay in the presence of SAM as cofactor. It counts as biochemical. The method, boiled down: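 Cofactor-free, SAM and MTA formats; IC50 μM; Ki = IC50/1.5 for SAM, IC50/13.5 for MTA.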

In experiment [4] the target is T1, PRMT5. Put plainly: PRMT5 IC50 assay with no cofactor. It counts as biochemical. An outline of the steps:
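Enzyme: human PRMT5. Conditions: plus SAM, plus MTA, or cofactor-free. Output: IC50 (μM); Ki via IC50/1.5 (SAM) or IC50/13.5 (MTA).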

In experiment [5] the target is T1, PRMT5. Briefly: PRMT5 IC50 assay in the presence of MTA as cofactor. The format is biochemical. To be noted: for IC50: PRMT5, MTA as cofactor. An outline of the steps:
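MTA-dependent versus SAM-dependent inhibition of human PRMT5 was assessed by IC50; conversion factors of 13.5 and 1.5 gave the corresponding Ki.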

Setting [6] is: ratio between Ki in the presence of SAM and Ki in the presence of MTA.
The mark [7] stands for this setting: ratio between the Ki in the presence of SAM and the Ki in the presence of MTA.

T1 sequence (O14744 whole entry): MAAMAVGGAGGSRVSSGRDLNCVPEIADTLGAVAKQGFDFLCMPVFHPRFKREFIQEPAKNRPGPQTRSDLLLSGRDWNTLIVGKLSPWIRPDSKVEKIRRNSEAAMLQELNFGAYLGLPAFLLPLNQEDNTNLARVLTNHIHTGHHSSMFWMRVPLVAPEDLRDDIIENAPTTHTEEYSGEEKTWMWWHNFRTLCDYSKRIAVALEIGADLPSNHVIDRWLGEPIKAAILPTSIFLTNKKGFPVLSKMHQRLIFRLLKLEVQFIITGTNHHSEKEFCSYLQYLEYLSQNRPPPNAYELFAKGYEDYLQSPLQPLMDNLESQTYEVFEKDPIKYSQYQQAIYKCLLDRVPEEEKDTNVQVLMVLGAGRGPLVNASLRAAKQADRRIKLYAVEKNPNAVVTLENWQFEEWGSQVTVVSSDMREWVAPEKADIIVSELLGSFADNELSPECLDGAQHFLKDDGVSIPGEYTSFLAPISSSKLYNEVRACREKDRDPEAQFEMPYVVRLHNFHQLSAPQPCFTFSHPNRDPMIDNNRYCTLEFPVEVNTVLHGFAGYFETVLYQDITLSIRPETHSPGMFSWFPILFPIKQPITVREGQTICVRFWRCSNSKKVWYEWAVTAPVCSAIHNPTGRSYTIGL
T1 sequence (Q9BQA1 whole entry partner): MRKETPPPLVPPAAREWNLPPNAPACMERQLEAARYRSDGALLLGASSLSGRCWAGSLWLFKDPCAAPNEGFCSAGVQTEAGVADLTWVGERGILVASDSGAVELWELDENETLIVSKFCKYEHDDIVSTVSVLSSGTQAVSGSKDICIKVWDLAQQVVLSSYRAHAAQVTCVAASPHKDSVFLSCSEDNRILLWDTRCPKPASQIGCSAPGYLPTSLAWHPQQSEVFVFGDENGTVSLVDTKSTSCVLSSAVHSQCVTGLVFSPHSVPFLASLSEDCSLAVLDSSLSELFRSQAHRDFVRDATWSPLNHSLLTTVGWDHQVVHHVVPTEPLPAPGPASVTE

As to `CN(C)CCOc1cc(C(=O)NC[C@H](O)CN2CCc3cc(OCc4cnco4)ccc3C2)cc(NC2CCC2)n1` [Compound 315, (S)-2-(cyclobutylamino)-6-(2-(dimethylamino)ethoxy)-N-(2-hydroxy-3-(6-(oxazol-5-ylmethoxy)-3,4-dihydroisoquinolin-2(1H)-yl)propyl)isonicotinamide], the IC50 in experiment [1] is 1 to 10 µM; in experiment [2], below 1 µM; in experiment [3] it was 50 to 500 nM; in experiment [4] (read-out: No Co-factor IC50), 0.5 to 5 µM; in experiment [5], below 50 nM. Besides, in experiment [2], the “MTAP Intact/Deleted Ratio” value is “C* (an IC50 ratio of less than 3 fold between the IC50 in the HAP1 MTAP-intact cell line and the HAP1 MTAP-deleted cell line)”. Besides, the “SAM/MTA Ratio” value in experiment [5] (setting [6]) was “A (a Ki ratio greater than or equal to 10 fold between the Ki in the presence of SAM and the Ki in the presence of MTA)”.

In the case of `Cc1ncoc1COc1cc2c(cc1F)CN(C[C@@H](O)CNC(=O)c1ccc3c(c1)CCN(C(=O)c1ccc(Br)cc1)C3)CC2` [Compound 578, 2-(4-bromobenzoyl)-N-[(2S)-3-[7-fluoro-6-[(4-methyloxazol-5-yl)methoxy]-3,4-dihydro-1H-isoquinolin-2-yl]-2-hydroxy-propyl]-3,4-dihydro-1H-isoquinoline-6-carboxamide], the IC50 in experiment [1] was in the range of 1 to 10 µM; in experiment [2] it was 1 to 10 µM; in experiment [3], 50 to 500 nM; in experiment [4], 0.5 to 5 µM; in experiment [5] it was 50 to 500 nM. In addition, the “MTAP Intact/Deleted Ratio” value in experiment [2] is “B* (an IC50 ratio greater than or equal to 3 fold but lower than 10 fold between the IC50 in the HAP1 MTAP-intact cell line and the HAP1 MTAP-deleted cell line)”. The “SAM/MTA Ratio” value in experiment [5] (setting [7]) is “A (a Ki ratio greater than or equal to 10 fold between the Ki in the presence of SAM and the Ki in the presence of MTA)”.

On to `CC(=O)N1CCC(Nc2cc(C(=O)NC[C@H](O)CN3CCc4nc(OCc5cnco5)ccc4C3)ncn2)CC1` [Compound 412, 6-[(1-acetyl-4-piperidyl)amino]-N-[(2S)-2-hydroxy-3-[2-(oxazol-5-ylmethoxy)-7,8-dihydro-5H-1,6-naphthyridin-6-yl]propyl]pyrimidine-4-carboxamide], for which the IC50 in experiment [1] was at least 10 µM; in experiment [2], at least 10 µM; in experiment [3], 500 to 5000 nM; in experiment [4] (read-out: No Co-factor IC50), at least 5 µM; in experiment [5], 50 to 500 nM. In addition, the “MTAP Intact/Deleted Ratio” value in experiment [2] was “C* (an IC50 ratio of less than 3 fold between the IC50 in the HAP1 MTAP-intact cell line and the HAP1 MTAP-deleted cell line)”. Moreover, the “SAM/MTA Ratio” value in experiment [5] (setting [6]) was “A (a Ki ratio greater than or equal to 10 fold between the Ki in the presence of SAM and the Ki in the presence of MTA)”.

For the compound `Cc1c(OCc2cnco2)ccc2c1CCN(C[C@@H](O)CNC(=O)c1ccnc(NC3CCN(C(=O)C4CCC4)CC3)c1)C2` [Compound 494, (S)-2-((1-(cyclobutanecarbonyl)piperidin-4-yl)amino)-N-(2-hydroxy-3-(5-methyl-6-(oxazol-5-ylmethoxy)-3N-dihydroisoquinolin-2(1H)-yl)propyl)isonicotinamide], the IC50 is at least 10 µM in experiment [1]; 1 to 10 µM in experiment [2]; 50 to 500 nM in experiment [3]; 0.5 to 5 µM in experiment [4]; 50 to 500 nM in experiment [5]. Moreover, the “MTAP Intact/Deleted Ratio” value in experiment [2] is “B* (an IC50 ratio greater than or equal to 3 fold but lower than 10 fold between the IC50 in the HAP1 MTAP-intact cell line and the HAP1 MTAP-deleted cell line)”. In addition, the “SAM/MTA Ratio” value in experiment [5] (setting [7]) was “A (a Ki ratio greater than or equal to 10 fold between the Ki in the presence of SAM and the Ki in the presence of MTA)”.

On to `O=C(NC[C@H](O)CN1CCc2cc(OCc3cnco3)ccc2C1)c1cc(NC2CCC2)nc(N2CCNCC2)c1` [Compound 422], for which the half-inhibitory concentration (IC50) lay in the range of 1 to 10 µM in experiment [1]; 1 to 10 µM in experiment [2]; 50 to 500 nM in experiment [3]; 0.5 to 5 µM in experiment [4] (read-out: No Co-factor IC50); 50 to 500 nM in experiment [5]. The “MTAP Intact/Deleted Ratio” value in experiment [2] was “C* (an IC50 ratio of less than 3 fold between the IC50 in the HAP1 MTAP-intact cell line and the HAP1 MTAP-deleted cell line)”. For the same compound, the “SAM/MTA Ratio” value in experiment [5] (setting [6]) is “A (a Ki ratio greater than or equal to 10 fold between the Ki in the presence of SAM and the Ki in the presence of MTA)”.

Take `Cc1c(OCc2cnco2)ccc2c1CCN(C[C@@H](O)CNC(=O)c1ccnc(NC3CN(C(=O)C4CCC4)C3)c1)C2` [Compound 586, (S)-2-((1-(cyclobutanecarbonyl)azetidin-3-yl)amino)-N-(2-hydroxy-3-(5-methyl-6-(oxazol-5-ylmethoxy)-3N-dihydroisoquinolin-2(1H)-yl)propyl)isonicotinamide]: the IC50 in experiment [1] was at least 10 µM; in experiment [2] it was 1 to 10 µM; in experiment [3] it was 50 to 500 nM; in experiment [4], 0.5 to 5 µM; in experiment [5] it was 50 to 500 nM. The “MTAP Intact/Deleted Ratio” value in experiment [2] was “B* (an IC50 ratio greater than or equal to 3 fold but lower than 10 fold between the IC50 in the HAP1 MTAP-intact cell line and the HAP1 MTAP-deleted cell line)”. Moreover, the “SAM/MTA Ratio” value in experiment [5] (setting [7]) was “A (a Ki ratio greater than or equal to 10 fold between the Ki in the presence of SAM and the Ki in the presence of MTA)”.

As for `Cc1ncoc1COc1ccc2c(c1)CCN(C[C@@H](O)CNC(=O)c1cccc(NC3COC3)c1)C2` [Compound 262, (S)—N-(2-hydroxy-3-(6-((4-methyloxazol-5-yl)methoxy)-3N-dihydroisoquinolin-2(1H)-yl)propyl)-3-(oxetan-3-ylamino)benzamide], the IC50 in experiment [1] is 1 to 10 µM; in experiment [2], 1 to 10 µM; in experiment [3], 500 to 5000 nM; in experiment [4] (read-out: No Co-factor IC50) it was at least 5 µM; in experiment [5], 50 to 500 nM. Moreover, in experiment [2], the “MTAP Intact/Deleted Ratio” value is “C* (an IC50 ratio of less than 3 fold between the IC50 in the HAP1 MTAP-intact cell line and the HAP1 MTAP-deleted cell line)”. Besides, the “SAM/MTA Ratio” value in experiment [5] (setting [6]) is “A (a Ki ratio greater than or equal to 10 fold between the Ki in the presence of SAM and the Ki in the presence of MTA)”.

Take `CC(=O)N1CC(Nc2cc(C(=O)NC[C@H](O)CN3CCc4c(ccc(OCc5ocnc5C)c4C)C3)nc(N3CCOCC3)n2)C1` [Compound 574, 6-[(1-acetylazetidin-3-yl)amino]-N-[(2S)-2-hydroxy-3-{5-methyl-6-[(4-methyl-1,3-oxazol-5-yl)methoxy]-1,2,3,4-tetrahydroisoquinolin-2-yl}propyl]-2-(morpholin-4-yl)pyrimidine-4-carboxamide]: the IC50 is at least 10 µM in experiment [1]; 1 to 10 µM in experiment [2]; 50 to 500 nM in experiment [3]; at least 5 µM in experiment [4]; 50 to 500 nM in experiment [5]. In experiment [2], the “MTAP Intact/Deleted Ratio” value is “C* (an IC50 ratio of less than 3 fold between the IC50 in the HAP1 MTAP-intact cell line and the HAP1 MTAP-deleted cell line)”. For the same compound, the “SAM/MTA Ratio” value in experiment [5] (setting [7]) was “A (a Ki ratio greater than or equal to 10 fold between the Ki in the presence of SAM and the Ki in the presence of MTA)”.

Consider `O=C(NC[C@H](O)CN1CCc2c(ccc(OCc3cnco3)c2Cl)C1)c1ccnc(NC2CCN(C(=O)C3CC3)CC2)c1` [Compound 366, (S)—N-(3-(5-chloro-6-(oxazol-5-ylmethoxy)-3N-dihydroisoquinolin-2(1H)-yl)-2-hydroxypropyl)-2-((1-(cyclopropanecarbonyl)piperidin-4-yl)amino)isonicotinamide], for which the IC50 in experiment [1] is at least 10 µM; in experiment [2], 1 to 10 µM; in experiment [3] it was 50 to 500 nM; in experiment [4] (read-out: No Co-factor IC50), 0.5 to 5 µM; in experiment [5], 50 to 500 nM. Further, in experiment [2], the “MTAP Intact/Deleted Ratio” value was “B* (an IC50 ratio greater than or equal to 3 fold but lower than 10 fold between the IC50 in the HAP1 MTAP-intact cell line and the HAP1 MTAP-deleted cell line)”. Moreover, the “SAM/MTA Ratio” value in experiment [5] (setting [6]) is “A (a Ki ratio greater than or equal to 10 fold between the Ki in the presence of SAM and the Ki in the presence of MTA)”.

As for `CN1CCN(c2nc(NC3COC3)cc(C(=O)NC[C@H](O)CN3CCc4c(ccc(OCc5cnco5)c4Cl)C3)n2)CC1` [Compound 285, (S)—N-(3-(5-chloro-6-(oxazol-5-ylmethoxy)-3,4-dihydroisoquinolin-2(1H)-yl)-2-hydroxypropyl)-2-(4-methylpiperazin-1-yl)-6-(oxetan-3-ylamino)pyrimidine-4-carboxamide], the IC50 was at least 10 µM in experiment [1]; 1 to 10 µM in experiment [2]; 50 to 500 nM in experiment [3]; 0.5 to 5 µM in experiment [4] (read-out: No Co-factor IC50); 50 to 500 nM in experiment [5]. Further, the “MTAP Intact/Deleted Ratio” value in experiment [2] is “C* (an IC50 ratio of less than 3 fold between the IC50 in the HAP1 MTAP-intact cell line and the HAP1 MTAP-deleted cell line)”. In addition, the “SAM/MTA Ratio” value in experiment [5] (setting [6]) is “A (a Ki ratio greater than or equal to 10 fold between the Ki in the presence of SAM and the Ki in the presence of MTA)”.

Turning to `Cn1nccc1COc1ccc2c(c1Cl)CCN(C[C@@H](O)CNC(=O)c1ccnc(NC3CCCC3)c1)C2` [Compound 275, (S)—N-(3-(5-chloro-6-((1-methyl-1H-pyrazol-5-yl)methoxy)-3,4-dihydroisoquinolin-2(1H)-yl)-2-hydroxypropyl)-2-(cyclopentylamino)isonicotinamide], the IC50 in experiment [1] is at least 10 µM; in experiment [2], at least 10 µM; in experiment [3], 500 to 5000 nM; in experiment [4] (read-out: No Co-factor IC50), at least 5 µM; in experiment [5], 500 to 5000 nM. For the same compound, the “MTAP Intact/Deleted Ratio” value in experiment [2] was “C* (an IC50 ratio of less than 3 fold between the IC50 in the HAP1 MTAP-intact cell line and the HAP1 MTAP-deleted cell line)”. Besides, the “SAM/MTA Ratio” value in experiment [5] (setting [6]) was “A (a Ki ratio greater than or equal to 10 fold between the Ki in the presence of SAM and the Ki in the presence of MTA)”.
